Measured values published in patent US12171756B2, “NLRP3 modulators” (Innate Tumor Immunity, Inc., priority 2017, dated 2024).
pEC50, pIC50: −log10 of the molar value.

Legend:
human TLR8 = molecular target: T1, human TLR8 (Homo sapiens, UniProt Q9NR97); test: In vitro human TLR8 binding reporter assay (HEK-Blue, NF-kB/AP1-inducible SEAP); format: cell-based; conditions: HEK-Blue human TLR8 SEAP reporter cells; activity range classes; read-out: TLR8 Agonist EC50
T1 construct: host or cells: human HEK-Blue cells (HEK293-derived) co-expressing TLR8 and an NF-kB/AP1-inducible SEAP reporter
T1 sequence (Q9NR97 27-1041): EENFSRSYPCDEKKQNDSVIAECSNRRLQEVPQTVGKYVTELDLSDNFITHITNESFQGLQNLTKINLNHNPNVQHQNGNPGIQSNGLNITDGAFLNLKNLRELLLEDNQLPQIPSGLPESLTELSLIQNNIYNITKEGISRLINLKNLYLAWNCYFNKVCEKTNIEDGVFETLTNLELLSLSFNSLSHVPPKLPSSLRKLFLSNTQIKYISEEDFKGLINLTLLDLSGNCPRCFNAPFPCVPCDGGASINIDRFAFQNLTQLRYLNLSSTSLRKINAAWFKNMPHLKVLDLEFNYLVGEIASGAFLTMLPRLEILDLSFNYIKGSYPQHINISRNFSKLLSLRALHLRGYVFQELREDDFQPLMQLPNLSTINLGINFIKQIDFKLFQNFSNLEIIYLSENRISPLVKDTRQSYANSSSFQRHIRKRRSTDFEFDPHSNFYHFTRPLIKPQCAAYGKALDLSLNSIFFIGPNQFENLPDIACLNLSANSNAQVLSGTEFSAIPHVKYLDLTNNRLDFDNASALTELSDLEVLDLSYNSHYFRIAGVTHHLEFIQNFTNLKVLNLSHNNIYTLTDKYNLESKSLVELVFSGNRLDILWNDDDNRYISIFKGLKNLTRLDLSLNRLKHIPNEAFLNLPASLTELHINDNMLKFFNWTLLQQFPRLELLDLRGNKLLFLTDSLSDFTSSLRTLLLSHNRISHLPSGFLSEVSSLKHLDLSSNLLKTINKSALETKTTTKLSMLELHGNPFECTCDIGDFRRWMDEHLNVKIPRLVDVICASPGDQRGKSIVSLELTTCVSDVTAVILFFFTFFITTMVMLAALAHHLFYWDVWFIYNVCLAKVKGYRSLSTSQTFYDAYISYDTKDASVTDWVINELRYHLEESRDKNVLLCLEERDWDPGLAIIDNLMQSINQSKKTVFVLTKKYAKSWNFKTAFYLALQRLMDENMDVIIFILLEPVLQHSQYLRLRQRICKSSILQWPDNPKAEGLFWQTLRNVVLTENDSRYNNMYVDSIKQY
How it was run: (§1)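 EC50s come from NF-kB/AP1-driven SEAP secretion in HEK-Blue cells expressing TLR7 or TLR8, measured with Quanti-Blue after an 18 h compound incubation. Maximal response is defined by a 50 μM reference standard.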

[1] = test system: IL-1β production in PMA-differentiated THP-1 cells; test: Measurement of IL-1β production in PMA-differentiated THP-1 cells (ELISA, 4 hours); format: cell-based, human; conditions: Homo sapiens, THP-1, human IL-1β production, assayed using one or more of the described procedures, read-out: NLRP3 hIL1B IC50
How it was run: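 IL-1β released into supernatant was measured by ELISA after a 4-hour compound exposure (final DMSO 1%, concentrations such as 100 down to 0.1 μM). Cells: THP-1 pretreated 24 h with 10 μg/ml PMA, then trypsinized and seeded at 1×10^6/ml in 2% FBS RPMI.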

human TLR7 = molecular target: T2, human TLR7 (Homo sapiens, UniProt Q9NYK1); test: In vitro human TLR7 binding reporter assay (HEK-Blue, NF-kB/AP1-inducible SEAP); format: cell-based; conditions: HEK-Blue human TLR7 SEAP reporter cells; activity range classes; read-out: TLR7 Agonist EC50
T2 construct: host or cells: human HEK-Blue cells (HEK293-derived) co-expressing TLR7 and an NF-kB/AP1-inducible SEAP reporter
T2 sequence (Q9NYK1 27-1049): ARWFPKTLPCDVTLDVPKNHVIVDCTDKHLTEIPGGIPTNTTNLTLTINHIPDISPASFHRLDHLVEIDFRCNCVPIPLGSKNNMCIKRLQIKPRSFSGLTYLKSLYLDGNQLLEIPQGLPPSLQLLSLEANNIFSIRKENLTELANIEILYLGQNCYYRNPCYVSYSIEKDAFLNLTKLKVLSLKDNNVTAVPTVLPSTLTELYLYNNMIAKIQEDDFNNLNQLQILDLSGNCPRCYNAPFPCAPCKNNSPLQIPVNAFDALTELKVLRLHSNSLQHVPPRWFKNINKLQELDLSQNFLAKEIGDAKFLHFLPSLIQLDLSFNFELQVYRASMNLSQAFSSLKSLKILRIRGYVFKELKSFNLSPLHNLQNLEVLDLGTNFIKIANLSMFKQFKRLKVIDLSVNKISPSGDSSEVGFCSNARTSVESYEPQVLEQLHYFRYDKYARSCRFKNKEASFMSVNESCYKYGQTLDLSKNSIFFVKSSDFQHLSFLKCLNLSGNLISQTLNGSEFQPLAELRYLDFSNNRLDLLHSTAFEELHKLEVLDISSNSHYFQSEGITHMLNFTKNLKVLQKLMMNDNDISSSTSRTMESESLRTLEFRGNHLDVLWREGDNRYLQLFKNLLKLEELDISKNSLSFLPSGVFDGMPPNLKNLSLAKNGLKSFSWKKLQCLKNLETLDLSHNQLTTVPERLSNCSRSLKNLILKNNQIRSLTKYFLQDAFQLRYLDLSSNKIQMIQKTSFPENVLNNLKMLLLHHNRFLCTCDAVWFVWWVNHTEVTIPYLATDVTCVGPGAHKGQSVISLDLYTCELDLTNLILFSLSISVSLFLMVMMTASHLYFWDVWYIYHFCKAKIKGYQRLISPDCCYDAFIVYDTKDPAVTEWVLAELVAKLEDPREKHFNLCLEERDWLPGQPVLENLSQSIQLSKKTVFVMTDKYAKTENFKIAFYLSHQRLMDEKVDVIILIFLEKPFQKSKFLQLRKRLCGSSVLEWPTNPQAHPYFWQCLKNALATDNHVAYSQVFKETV
How it was run: as §1

Structure (SMILES) | pEC50 (human TLR8) | pIC50 [1] | pEC50 (human TLR7)
Nc1cc(N[C@@H]2CCCC[C@@H]2O)c2ccc(-c3ccn[nH]3)cc2n1 [Compound 251] | < 4.00 | 6.43 | < 4.00
Cn1cncc1CNc1cc(N)nc2cc(-c3ccn[nH]3)ccc12 [Compound 252] | < 4.00 | 5.77 | < 4.00
CNc1cc(N)nc2cc(-c3ccn[nH]3)ccc12 [Compound 253] | < 4.00 | 6.57 | < 4.00
COCC(O)CNc1cc(N)nc2cc(-c3ccn[nH]3)ccc12 (stereo not drawn) [Compound 254] | < 4.00 | 6.68 | < 4.00
COCCNc1cc(N)nc2cc(-c3ccn[nH]3)ccc12 [Compound 255] | < 4.00 | 6.57 | < 4.00
Nc1cc(NCc2ccccc2)c2ccc(-c3ccn[nH]3)cc2n1 [Compound 256] | < 4.00 | 6.66 | < 4.00
CS(=O)(=O)Nc1cccc(CNc2cc(N)nc3cc(-c4ccn[nH]4)ccc23)c1 [Compound 257] | < 4.00 | 6.17 | < 4.00
CS(=O)(=O)Nc1ccc(CNc2cc(N)nc3cc(-c4ccn[nH]4)ccc23)cc1 [Compound 258] | < 4.00 | 5.74 | < 4.00
COc1cccc(CNc2cc(N)nc3cc(-c4ccn[nH]4)ccc23)c1 [Compound 259] | < 4.00 | 6.19 | < 4.00
Nc1cc(NCc2cccc(F)c2)c2ccc(-c3ccn[nH]3)cc2n1 [Compound 260] | < 4.00 | 6.49 | < 4.00
Nc1cc(NCCc2cc[nH]n2)c2ccc(-c3ccn[nH]3)cc2n1 [Compound 261] | < 4.00 | 6.85 | < 4.00
Nc1cc(NCCn2cccn2)c2ccc(-c3ccn[nH]3)cc2n1 [Compound 262] | < 4.00 | 6.92 | < 4.00
CN(Cc1cc[nH]n1)c1cc(N)nc2cc(-c3ccn[nH]3)ccc12 [Compound 263] | < 4.00 | 5.54 | < 4.00
CN(Cc1cccnc1)c1cc(N)nc2cc(-c3ccn[nH]3)ccc12 [Compound 264] | < 4.00 | 5.54 | < 4.00
Nc1cc(N2CCCOCC2)c2ccc(-c3ccn[nH]3)cc2n1 [Compound 265] | < 4.00 | 6.46 | < 4.00
Nc1cc(NCC2COCCO2)c2ccc(-c3ccn[nH]3)cc2n1 (stereo not drawn) [Compound 266] | < 4.00 | 6.41 | < 4.00
Nc1cc(NC[C@@H]2CNCCO2)c2ccc(-c3ccn[nH]3)cc2n1 [Compound 267] | < 4.00 | 5.80 | < 4.00
Nc1cc(NC[C@@H]2COCCN2)c2ccc(-c3ccn[nH]3)cc2n1 [Compound 268] | < 4.00 | 6.01 | < 4.00
Nc1cc(NC[C@H]2COCCN2)c2ccc(-c3ccn[nH]3)cc2n1 [Compound 269] | < 4.00 | 5.94 | < 4.00

Structure (SMILES) | pEC50 (human TLR8) | pIC50 [1] | pEC50 (human TLR7)
CC(C)(C)OC(=O)N1CC(Nc2cc(N)nc3cc(-c4ccn[nH]4)ccc23)C1 [Compound 270] | < 4.00 | 5.13 | < 4.00
Nc1cc(N2CC(F)(F)C2)c2ccc(-c3ccn[nH]3)cc2n1 [Compound 271] | < 4.00 | 6.44 | < 4.00
Nc1cc(N2CCC[C@@H]2CO)c2ccc(-c3ccn[nH]3)cc2n1 [Compound 272] | < 4.00 | 5.21 | < 4.00
Nc1cc(NC2CCC2)c2ccc(-c3ccn[nH]3)cc2n1 [Compound 273] | < 4.00 | 6.77 | < 4.00
Nc1cc(N2CCCC(CO)C2)c2ccc(-c3ccn[nH]3)cc2n1 (stereo not drawn) [Compound 274] | < 4.00 | 5.70 | < 4.00
Nc1cc(NC2CCOC2)c2ccc(-c3ccn[nH]3)cc2n1 (stereo not drawn) [Compound 275] | < 4.00 | 6.70 | < 4.00
Nc1cc(N[C@@H]2CCOC2)c2ccc(-c3ccn[nH]3)cc2n1 [Compound 276] | < 4.00 | 6.28 | < 4.00
Nc1cc(N[C@H]2CCOC2)c2ccc(-c3ccn[nH]3)cc2n1 [Compound 277] | < 4.00 | 6.66 | < 4.00
Nc1cc(NC2CCOCC2)c2ccc(-c3ccn[nH]3)cc2n1 [Compound 278] | < 4.00 | 5.88 | < 4.00
Nc1cc(NC2CCCOC2)c2ccc(-c3ccn[nH]3)cc2n1 (stereo not drawn) [Compound 279] | < 4.00 | 6.48 | < 4.00
Nc1cc(NC2COC2)c2ccc(-c3ccn[nH]3)cc2n1 [Compound 280] | < 4.00 | 5.80 | < 4.00
Nc1cc(NC2CCCCC2)c2ccc(-c3ccn[nH]3)cc2n1 [Compound 281] | < 4.00 | 6.24 | < 4.00
Nc1cc(N[C@H]2CC[C@H](O)CC2)c2ccc(-c3ccn[nH]3)cc2n1 [Compound 282] | < 4.00 | 5.25 | < 4.00
Nc1cc(N[C@H]2CC[C@@H](O)CC2)c2ccc(-c3ccn[nH]3)cc2n1 [Compound 283] | < 4.00 | 5.77 | < 4.00
Nc1cc(NCCc2cccnc2)c2ccc(-c3ccn[nH]3)cc2n1 [Compound 284] | < 4.00 | 6.42 | < 4.00
Nc1cc(NC[C@H]2CCCN2)c2ccc(-c3cc[nH]n3)cc2n1 [Compound 285] | < 4.00 | 5.81 | < 4.00
Nc1cc(N2CCCNCC2)c2ccc(-c3cc[nH]n3)cc2n1 [Compound 286] | < 4.00 | 4.88 | < 4.00
Nc1cc(NC[C@@H](O)CO)c2ccc(-c3ccn[nH]3)cc2n1 [Compound 287] | < 4.00 | 6.15 | < 4.00
Nc1cc(N[C@H]2CCCOC2)c2ccc(-c3ccn[nH]3)cc2n1 [Compound 288] | < 4.00 | 6.41 | < 4.00
